Results from patent publication US20260374773A1, “MULTI-CYCLIC IRAK AND FLT3 INHIBITING COMPOUNDS AND USES THEREOF” (CHILDREN'S HOSPITAL MEDICAL CENTER, priority 2022, published 2026).

Target: T1, FLT3 K663Q (Homo sapiens, UniProt P36888, K663Q)
T1 sequence (P36888 27-993 K663Q): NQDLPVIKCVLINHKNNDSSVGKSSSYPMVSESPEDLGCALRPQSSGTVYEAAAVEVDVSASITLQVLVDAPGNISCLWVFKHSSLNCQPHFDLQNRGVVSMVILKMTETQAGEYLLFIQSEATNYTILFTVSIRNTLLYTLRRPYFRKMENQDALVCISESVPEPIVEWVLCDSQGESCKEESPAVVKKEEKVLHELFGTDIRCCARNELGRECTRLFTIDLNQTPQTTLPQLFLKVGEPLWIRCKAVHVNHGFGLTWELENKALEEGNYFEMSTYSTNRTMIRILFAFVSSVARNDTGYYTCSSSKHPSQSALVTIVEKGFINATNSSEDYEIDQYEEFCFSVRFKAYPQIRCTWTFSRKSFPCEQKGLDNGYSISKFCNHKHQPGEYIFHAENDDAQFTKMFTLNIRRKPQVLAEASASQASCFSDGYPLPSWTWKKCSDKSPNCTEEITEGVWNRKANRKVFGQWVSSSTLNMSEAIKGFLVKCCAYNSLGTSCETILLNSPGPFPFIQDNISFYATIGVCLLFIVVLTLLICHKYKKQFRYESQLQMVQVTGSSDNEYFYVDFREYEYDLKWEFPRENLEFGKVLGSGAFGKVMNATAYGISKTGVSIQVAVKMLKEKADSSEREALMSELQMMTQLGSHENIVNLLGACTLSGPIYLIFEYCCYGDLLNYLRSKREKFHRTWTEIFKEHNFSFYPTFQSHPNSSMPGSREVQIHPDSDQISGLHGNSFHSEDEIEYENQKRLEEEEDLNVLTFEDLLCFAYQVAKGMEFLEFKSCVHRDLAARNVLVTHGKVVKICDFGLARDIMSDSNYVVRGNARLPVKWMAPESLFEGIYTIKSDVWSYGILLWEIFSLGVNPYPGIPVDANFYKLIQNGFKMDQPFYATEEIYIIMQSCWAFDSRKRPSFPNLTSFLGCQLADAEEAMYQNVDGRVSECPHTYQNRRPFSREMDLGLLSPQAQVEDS
Assay: DiscoverX KINOMEscan active site-directed competition binding, FLT3 K663Q
Settings: no ATP
Excerpt: (§1) Kinase binding data were obtained for various exemplary compounds prepared according to Examples 1-8 using the DiscoverX KINOMEscan® active site-directed competition binding site-directed assay protocol described below. […] As a result, the data report thermodynamic interaction affinities (Kd values), rather than IC50 values that are dependent on ATP concentrations. The assay uses a DNA-tagged version of the protein kinase, and an immobilized ligand bound to a solid support. Compounds that directly or indirectly prevent kinase binding to the immobilized ligand reduce the amount of kinase captured on the solid support, which is detected using an ultra-sensitive qPCR method. Affinity constants reported from the assay have been reported to be independent of the immobilized ligand used that is coupled to the solid support (See supplemental information in Fabian, M. A. et. al., (2005) Nat. Biotechnol. 23, 329-336; Wodicka, L. M. et. al., (2010) Chem. Biol. 17, 1241-1249.)
Kinase-tagged T7 phage strains were prepared in an E. coli host derived from the BL21 strain. E. coli were grown to log-phase and infected with T7 phage and incubated with shaking at 32 °C until lysis. The lysates were centrifuged and filtered to remove cell debris. The remaining kinases were produced in HEK-293 cells and subsequently tagged with DNA for qPCR detection. Streptavidin-coated magnetic beads were treated with biotinylated small molecule ligands for 30 minutes at room temperature to generate affinity resins for kinase assays. The liganded beads were blocked with excess biotin and washed with blocking buffer (SeaBlock (Pierce), 1% BSA, 0.05% Tween 20, 1 mM DTT) to remove unbound ligand and to reduce non-specific binding. […] Test compounds were prepared as 111x stocks in 100% DMSO. Kds were determined using an 11-point 3-fold compound dilution series with three DMSO control points. All compounds for Kd measurements are distributed by acoustic transfer (non-contact dispensing) in 100% DMSO. The compounds were then diluted directly into the assays such that the final concentration of DMSO was 0.9%. All reactions were performed in polypropylene 384-well plates. Each was a final volume of 0.02 mL. The assay plates were incubated at room temperature with shaking for 1 hour and the affinity beads were washed with wash buffer (1×PBS, 0.05% Tween 20). The beads were then re-suspended in elution buffer (1×PBS, 0.05% Tween 20, 0.5 μM nonbiotinylated affinity ligand) and incubated at room temperature with shaking for 30 minutes. The kinase concentration in the eluates was measured by qPCR. Binding constants (Kds) were calculated with a standard dose-response curve using the Hill equation. The Hill Slope was set to −1. Curves were fitted using a non-linear least square fit with the Levenberg-Marquardt algorithm.
as §1, with “9-12” for “1-8”
Kinase-tagged T7 phage strains were prepared in an E. coli host derived from the BL21 strain. […]

Row | SMILES | Kd (Table 19) | Kd (Table 13)
1 | COc1cn2ncc(-c3nc(N[C@H]4CNCC[C@@H]4F)ncc3F)c2nc1C(C)(C)O [Compound 6a, 2-(3-(5-fluoro-2-(((3S,4S)-4-fluoropiperidin-3-yl)amino)pyrimidin-4-yl)-6-methoxypyrazolo[1,5-a]pyrimidin-5-yl)propan-2-ol] | 2000 pM | 
2 | COc1cn2ncc(-c3nc(N[C@@H]4CCCNC4)ncc3F)c2nc1C1CC1 [Compound 14a, (R)-4-(5-cyclopropyl-6-methoxypyrazolo[1,5-a]pyrimidin-3-yl)-5-fluoro-N-(piperidin-3-yl)pyrimidin-2-amine] | < 170 pM | 
3 | COc1cn2ncc(-c3ccnc(N[C@H]4CNCC[C@@H]4F)n3)c2nc1C1CC1 [Compound 7a, 4-(5-cyclopropyl-6-methoxypyrazolo[1,5-a]pyrimidin-3-yl)-N-((3S,4S)-4-fluoropiperidin-3-yl)pyrimidin-2-amine] | 820 pM | 
4 | COc1cn2ncc(-c3nc(N[C@H]4CNCC[C@@H]4F)c(C#N)cc3F)c2nc1C(C)(C)O [Compound 10, 5-fluoro-2-(((3S,4S)-4-fluoropiperidin-3-yl)amino)-6-(5-(2-hydroxypropan-2-yl)-6-methoxypyrazolo[1,5-a]pyrimidin-3-yl)nicotinonitrile] |  | 1100 pM
5 | COc1cn2ncc(-c3cncc(N[C@H]4CNCC[C@@H]4F)n3)c2nc1C1CC1 [Compound 12a, 6-(5-cyclopropyl-6-methoxypyrazolo[1,5-a]pyrimidin-3-yl)-N-((3S,4S)-4-fluoropiperidin-3-yl)pyrazin-2-amine] | 440 pM | 
6 | COc1cn2ncc(-c3nc(N[C@H]4CNCC[C@@H]4F)c(F)cc3F)c2nc1C(C)(C)O [Compound 13, 2-(3-(3,5-difluoro-6-(((3S,4S)-4-fluoropiperidin-3-yl)amino)pyridin-2-yl)-6-methoxypyrazolo[1,5-a]pyrimidin-5-yl)propan-2-ol] |  | 1600 pM
7 | COc1cn2ncc(-c3nc(N[C@H]4CNCC[C@@H]4F)c(C#N)cc3F)c2nc1C1CC1 [Compound 7, 6-(5-cyclopropyl-6-methoxypyrazolo[1,5-a]pyrimidin-3-yl)-5-fluoro-2-(((3S,4S)-4-fluoropiperidin-3-yl)amino)nicotinonitrile] |  | < 170 pM
8 | COc1cn2ncc(-c3nc(N[C@H]4CNCC[C@@H]4F)ncc3F)c2nc1C1CC1 [Compound 15a, 4-(5-cyclopropyl-6-methoxypyrazolo[1,5-a]pyrimidin-3-yl)-5-fluoro-N-((3S,4S)-4-fluoropiperidin-3-yl)pyrimidin-2-amine] | 210 pM | 
